Laboratory results reported in the supplement of paper PMC10307832.

How the values were obtained:
Assay in all cases: relative viability (nuclei count vs DMSO), 5 days (fraction); higher = more cells survive
Tivantinib + Lapatinib = compound: O=C1NC(=O)[C@@H](c2cn3c4c(cccc24)CCC3)[C@@H]1c1c[nH]c2ccccc12 [Tivantinib] + CS(=O)(=O)CCNCc1ccc(-c2ccc3ncnc(Nc4ccc(OCc5cccc(F)c5)c(Cl)c4)c3c2)o1 [Lapatinib] (partner 2 µM)
Method in brief: (§1)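 Five library-drug doses in √10 steps were combined with a fixed anchor-drug dose, or a single drug was given alone, by pin tool to lung cancer cell lines in 1536-well plates the day after seeding. Nuclei were stained and counted after 5 days. Relative viability is the nuclei count in treated wells over that in vehicle wells, taken as the median of duplicate plates.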

Crenolanib + Tozasertib = compound: CC1(COc2ccc3c(c2)ncn3-c2ccc3cccc(N4CCC(N)CC4)c3n2)COC1 [Crenolanib] + Cc1cc(Nc2cc(N3CCN(C)CC3)nc(Sc3ccc(NC(=O)C4CC4)cc3)n2)n[nH]1 [Tozasertib] (partner 0.1 µM)
Method in brief: as §1

Tivantinib + Olaparib = compound: O=C1NC(=O)[C@@H](c2cn3c4c(cccc24)CCC3)[C@@H]1c1c[nH]c2ccccc12 [Tivantinib] + O=C(c1cc(Cc2n[nH]c(=O)c3ccccc23)ccc1F)N1CCN(C(=O)C2CC2)CC1 [Olaparib] (partner 8 µM)
Method in brief: as §1

Tivantinib + Palbociclib = compound: O=C1NC(=O)[C@@H](c2cn3c4c(cccc24)CCC3)[C@@H]1c1c[nH]c2ccccc12 [Tivantinib] + CC(=O)c1c(C)c2cnc(Nc3ccc(N4CCNCC4)cn3)nc2n(C2CCCC2)c1=O [Palbociclib] (partner 0.5 µM)
Method in brief: as §1

Cell Line: UMC-11
- relative viability (Tivantinib + Lapatinib; first compound 0.01 µM): 1.03
- relative viability (Tivantinib + Lapatinib; first compound 0.03162 µM): 0.673
- relative viability (Tivantinib + Lapatinib; first compound 0.1 µM): 1.03
- relative viability (Tivantinib + Lapatinib; first compound 0.3162 µM): 1.08
- relative viability (Crenolanib + Tozasertib; first compound 0.01 µM): 0.193
- relative viability (Crenolanib + Tozasertib; first compound 0.03162 µM): 0.207
- relative viability (Crenolanib + Tozasertib; first compound 0.1 µM): 0.213
- relative viability (Crenolanib + Tozasertib; first compound 0.3162 µM): 0.189
- relative viability (Crenolanib + Tozasertib; first compound 1 µM): 0.192
- relative viability (Tivantinib + Olaparib; first compound 0.01 µM): 0.354
- relative viability (Tivantinib + Olaparib; first compound 0.03162 µM): 0.341
- relative viability (Tivantinib + Olaparib; first compound 0.1 µM): 0.365
- relative viability (Tivantinib + Olaparib; first compound 0.3162 µM): 0.362
- relative viability (Tivantinib + Palbociclib; first compound 0.01 µM): 0.354
- relative viability (Tivantinib + Palbociclib; first compound 0.03162 µM): 0.332
- relative viability (Tivantinib + Palbociclib; first compound 0.1 µM): 0.314
- relative viability (Tivantinib + Palbociclib; first compound 0.3162 µM): 0.311
